Measured values as given in article PMC11578313, “Miniaturized Modular Click Chemistry‐enabled Rapid Discovery of Unique SARS‐CoV‐2 M^pro Inhibitors With Robust Potency and Drug‐like Profile” (Advanced Science, 2024).
Several values for one entry are separate records, joined by “and”; a condition that tells them apart may be missing. Equal values may be shown once.

Experiment: In vivo pharmacokinetic study in male ICR mice (compound alone)
Conditions: for Plasma concentration (Calculated Concentration): mouse plasma
Protocol: The pharmacokinetics profile of the newly developed antiviral compound C5N17B was subsequently evaluated in male ICR mice that were free from specific pathogens, aiming to assess its potential for therapeutic application in vivo.
A total of six male ICR mice were randomly assigned to two groups. One group received the test drug intravenously at a dosage of 2 mg kg^−1, while the other group received oral administration at a dosage of 10 mg kg^−1. To prepare solutions of C5N17B, 2.39 mg compound was dissolved in a mixture of 0.119 mL DMSO, 0.238 mL polyoxyl 15 hydroxystearate (Solutol), and 2.027 mL normal saline. For the intravenous group, blood samples were collected from the sinus jugular into heparinized centrifugation tubes at various time points after dosing: 5, 15, 30 min, 1, 2, 4, 6, 8, and 24 h. As for the oral administration group, blood samples were collected at similar time points (0.05 mL of blood each time). The collected blood samples were then centrifuged at a speed of 4000 rpm for 10 min to separate plasma, which was subsequently stored at −20 °C until further LC‐MS analysis to determine the concentration of C5N17B. Briefly, the analysis involved adding 20 µL of plasma, sample calibration standard, quality control, and dilution quality control, and blank samples into respective wells on a 96‐well plate. Then each sample was quenched with 200 µL of internal standard (the blank sample was quenched with 200 µL of ACN: MeOH = 1:1), followed by vortex‐mixed for 5 min, and centrifuged for 0.5 min at 4000 rpm, 4 °C. Next, a 100 µL portion of supernatant was transferred to another clean 96‐well plate and diluted with 100 µL of water, vortex‐mixed for 5 min and centrifuged for 10 min at 4000 rpm, 4 °C, then the sample was injected for LC‐MS/MS analysis. All samples were quantified using an LC‐MS/MS‐AR Triple Quad 5500+ (SCIEX, USA) and the ExionLC liquid phase system. The mobile phase was 0.1% formic acid‐water/ACN with gradient elute at a flow rate of 0.8 mL mi^−1n (total time 2.20 min), and the detection wavelength was 225 nm. All blood samples were centrifuged using an Eppendorf 5424R centrifuge and quantified using an LC‐MS/MS‐AR Triple Quad 5500+ (SCIEX, USA). The pharmacokinetic parameters were calculated by WinNolin 8.2 software.

[1] = IV 2 mg/kg, individual mice 1#-3#, 2 mg/kg
[2] = IV 2 mg/kg, individual mice 1-3, 2 mg/kg
[3] = PO 10 mg/kg, individual mice 4#-6#, 10 mg/kg
[4] = PO 10 mg/kg, individual mice 4-6, 10 mg/kg

In the case of `Cc1cncc(C(=O)N2C[C@H]3CC[C@@H](C2)N3[C@H](c2cccc(F)c2)c2cn(CCc3ccsc3)nn2)c1` [Compound C5N17B], the “Plasma concentration (Calculated Concentration)” value (IV 2 mg/kg, 5 min (5 min), individual mice 1#-3#, 2 mg/kg) is reported as 185 ng/mL and 233 ng/mL, the “Plasma concentration (Calculated Concentration)” value (IV 2 mg/kg, 0.5 h (30 min), individual mice 1#-3#, 2 mg/kg) is reported as 10.2 ng/mL and 16.1 ng/mL and the plasma concentration (IV 2 mg/kg, 1 h, individual mice) is reported as “BQL”. The “Plasma concentration (Calculated Concentration)” value (IV 2 mg/kg, 1 h, individual mice 1#-3#, 2 mg/kg) was “BQL (3×) and No Peak”, the plasma concentration (IV 2 mg/kg, 2 h, individual mice) was “BQL” and the “Plasma concentration (Calculated Concentration)” value (IV 2 mg/kg, 2 h, individual mice 1#-3#, 2 mg/kg) was “BQL (3×) and No Peak”. The plasma concentration (IV 2 mg/kg, 4 h, individual mice) was “BQL”, the “Plasma concentration (Calculated Concentration)” value (IV 2 mg/kg, 4 h, individual mice 1#-3#, 2 mg/kg) was “BQL (3×) and No Peak” and the plasma concentration (IV 2 mg/kg, 6 h, individual mice) was “BQL”. For the same compound, the “Plasma concentration (Calculated Concentration)” value (IV 2 mg/kg, 6 h, individual mice 1#-3#, 2 mg/kg) was “BQL (3×) and No Peak”, the plasma concentration (IV 2 mg/kg, 8 h, individual mice) was “BQL” and the “Plasma concentration (Calculated Concentration)” value (IV 2 mg/kg, 8 h, individual mice 1#-3#, 2 mg/kg) was “BQL (3×) and No Peak”. The plasma concentration (IV 2 mg/kg, 24 h, individual mice) was “BQL”, the “Plasma concentration (Calculated Concentration)” value (IV 2 mg/kg, 24 h, individual mice 1#-3#, 2 mg/kg) was “BQL (3×) and No Peak” and the “AUC0-∞” value [1] was 51.4 ng·h/mL and 65.2 ng·h/mL. The AUC(0-t) [1] was 49.9 ng·h/mL and 62.6 ng·h/mL, the C0 [1] was 342 ng/mL and 528 ng/mL and the Cl [1] was 648.77 mL/min/kg and 511.58 mL/min/kg. The Cmax [1] was 185 ng/mL and 233 ng/mL, the MRT0-t [1] was 6.48 min and 5.56 min and the “MRT0-∞” value [1] was 7.38 min and 6.9 min. For the same compound, the T1/2 [1] was 6 min and 6.66 min, the Vz [1] was 5.616 L/kg and 4.924 L/kg and the Tlast (IV 2 mg/kg, individual mice 1-3) was 0.5 h. The AUCINF_obs [2] was 51.379 ng·h/mL and 65.1568 ng·h/mL, the AUCINF_pred [2] was 51.3513 ng·h/mL and 64.7977 ng·h/mL and the AUC_%Back_Ext_obs [2] was 49.436% and 42.7448% and 48.6559%. For the same compound, the AUC_%Back_Ext_pred [2] was 49.6744% and 42.7678% and 48.9255%, the AUC_%Extrap_obs [2] was 3.513% and 2.864% and 3.964% and the AUC_%Extrap_pred [2] was 3.048% and 2.812% and 3.432%. For the same compound, the AUCall [2] was 49.9075 ng·h/mL and 62.5739 ng·h/mL, the AUClast [2] was 49.9075 ng·h/mL and 62.5739 ng·h/mL and the AUMCINF_obs [2] was 8.9367 h*h*ng/mL and 6.325 h*h*ng/mL and 7.498 h*h*ng/mL. The AUMCINF_pred [2] was 8.682 h*h*ng/mL and 6.307 h*h*ng/mL and 7.2606 h*h*ng/mL, the AUMC_%Extrap_obs [2] was 20.8781% and 14.9894% and 22.7511% and the AUMC_%Extrap_pred [2] was 18.5552% and 14.7494% and 20.228%. The AUMClast [2] was 7.071 h*h*ng/mL and 5.377 h*h*ng/mL and 5.792 h*h*ng/mL, the C0 [2] was 342.295 ng/mL and 528.167 ng/mL and the Cl_obs [2] was 648.773 mL/min/kg and 511.587 mL/min/kg. For the same compound, the Cl_pred [2] was 412.98 mL/min/kg and 649.123 mL/min/kg and 514.422 mL/min/kg, the Clast [2] was 10.2 ng/mL and 16.1 ng/mL and the Clast_pred [2] was 15.8864 ng/mL and 10.0084 ng/mL and 13.8618 ng/mL. The Cmax [2] was 185 ng/mL and 233 ng/mL, the Cmax_D [2] was 146 kg·ng/mL/mg and 92.5 kg·ng/mL/mg and 116.5 kg·ng/mL/mg and the HL_Lambda_z [2] was 0.1073 h and 0.09999 h and 0.1112 h. The Lambda_z [2] was 6.932 h⁻¹ and 6.233 h⁻¹, the MRTINF_obs [2] was 7.386 min and 6.906 min and the MRTINF_pred [2] was 7.368 min and 6.72 min. For the same compound, the MRTlast [2] was 6.462 min and 5.554 min, the Vss_obs [2] was 2.71724 L/kg and 4.7917 L/kg and 3.53216 L/kg and the Vss_pred [2] was 2.66526 L/kg and 4.78335 L/kg and 3.45846 L/kg. The Vz_obs [2] was 3.81856 L/kg and 5.61561 L/kg and 4.92437 L/kg, the Vz_pred [2] was 3.83697 L/kg and 5.61863 L/kg and 4.95166 L/kg and the “C0, Mean” value (IV 2 mg/kg, mean of mice 1#-3#) was 514 ng/mL. For the same compound, the “Plasma concentration (Calculated Concentration)” value (PO 10 mg/kg (10MPK), 5 min (5 min), individual mice 4#-6#) was 23.7 ng/mL and 30.0 ng/mL and 68.2 ng/mL and 30 ng/mL, the “Plasma concentration (Calculated Concentration)” value (PO 10 mg/kg (10MPK), 15 min, individual mice 4-6) was 15.3 ng/mL and 19.3 ng/mL and the “Plasma concentration (Calculated Concentration)” value (PO 10 mg/kg (10MPK), 30 min, individual mice 4-6) was 8.4 ng/mL and 4.44 ng/mL and 12 ng/mL. For the same compound, the “Plasma concentration (Calculated Concentration)” value (PO 10 mg/kg (10MPK), 1 hr, individual mice 4-6) was 6.32 ng/mL and 10.4 ng/mL and 4.89 ng/mL, the “Plasma concentration (Calculated Concentration), re-analysis” value (PO 10 mg/kg (10MPK), 1 hr, samples marked "re", individual mice) was 5.19 ng/mL and the “Plasma concentration (Calculated Concentration)” value (PO 10 mg/kg (10MPK), 2 hr, individual mice 4-6) was 6.1 ng/mL and 8.71 ng/mL and 16.7 ng/mL. The “Plasma concentration (Calculated Concentration)” value (PO 10 mg/kg (10MPK), 4 hr, individual mice 4-6) was 4.35 ng/mL and 7.74 ng/mL, the “Plasma concentration (Calculated Concentration)” value (PO 10 mg/kg (10MPK), 6 hr, individual mice 4-6) was “No Peak” and the “Plasma concentration (Calculated Concentration)” value (PO 10 mg/kg (10MPK), 8 hr, individual mice 4-6) was “No Peak”. The “Plasma concentration (Calculated Concentration)” value (PO 10 mg/kg (10MPK), 24 hr, individual mice 4-6) was “No Peak”, the T1/2 (PO 10 mg/kg (10MPK), individual mice 4#-6#) was 208 min and 142 min and 290 min and the plasma concentration (PO 10 mg/kg, 0.5 h, individual mice 4#-6#, 10 mg/kg) was 8.4 ng/mL and 12 ng/mL. The plasma concentration (PO 10 mg/kg, 2 h, individual mice 4#-6#, 10 mg/kg) was 6.1 ng/mL, the plasma concentration (PO 10 mg/kg, 6 h, individual mice 4#-6#, 10 mg/kg) was “BQL” and the plasma concentration (PO 10 mg/kg, 8 h, individual mice 4#-6#) was “BQL”. The plasma concentration (PO 10 mg/kg, 24 h, individual mice 4#-6#) was “BQL”, the “AUC0-∞” value [3] was 54.0 ng·h/mL and 102 ng·h/mL and the AUC(0-t) [3] was 45.5 ng·h/mL and 47.9 ng·h/mL. The Cmax [3] was 30.0 ng/mL and 68.2 ng/mL and 23.7 ng/mL, the F [3] was 14.30% and 15.08% and the MRT0-t [3] was 114 min and 110 min. The “MRT0-∞” value [3] was 314 min and 185 min and 401 min, the Tlag (PO 10 mg/kg, individual mice 4-6) was 0 h and the Cmax (PO 10 mg/kg, individual mice 4-6, full-precision output, 10 mg/kg) was 30 ng/mL and 68.2 ng/mL and 23.7 ng/mL. For the same compound, the AUCINF_obs [4] was 54.0464 ng·h/mL and 102.004 ng·h/mL, the AUCINF_pred [4] was 53.9915 ng·h/mL and 94.7713 ng·h/mL and the AUC_%Extrap_obs [4] was 48.9815% and 15.8821% and 53.0006%. The AUC_%Extrap_pred [4] was 44.7444% and 15.7964% and 49.4138%, the AUCall [4] was 45.4628 ng·h/mL and 47.9412 ng·h/mL and the AUClast [4] was 45.4628 ng·h/mL and 47.9412 ng·h/mL. The AUMCINF_obs [4] was 311.492 h*h*ng/mL and 166.93 h*h*ng/mL and 682.098 h*h*ng/mL, the AUMCINF_pred [4] was 270.44 h*h*ng/mL and 166.412 h*h*ng/mL and 602.65 h*h*ng/mL and the AUMC_%Extrap_obs [4] was 84.1842% and 48.3677% and 87.065%. For the same compound, the AUMC_%Extrap_pred [4] was 81.7834% and 48.2072% and 85.3597%, the AUMClast [4] was 49.2649 h*h*ng/mL and 86.1896 h*h*ng/mL and 88.2296 h*h*ng/mL and the Cl_F_obs [4] was 3083.77 mL/min/kg and 1633.93 mL/min/kg. The Cl_F_pred [4] was 3030.33 mL/min/kg and 3086.92 mL/min/kg and 1758.62 mL/min/kg, the Clast [4] was 5.85 ng/mL and 2.52 ng/mL and 7.74 ng/mL and the Clast_pred [4] was 4.934 ng/mL and 2.504 ng/mL and 6.705 ng/mL. For the same compound, the Cmax_D [4] was 3 kg·ng/mL/mg and 6.82 kg·ng/mL/mg and 2.37 kg·ng/mL/mg, the HL_Lambda_z [4] was 3.457 h and 2.361 h and 4.842 h and the Lambda_z [4] was 0.2005 h⁻¹ and 0.2936 h⁻¹ and 0.1432 h⁻¹. The MRTINF_obs [4] was 313.7 min and 185.3 min and 401.2 min.
